EP1435231B1, “Non-pegylated long-circulating liposomes” (Bharat Serums & Vaccines Ltd., priority 2002, dated 2004)

Assays:
[1] = system: Dogs; experiment: Subacute toxicity in dogs; settings: dog, in vivo
Source text: • clinical signs of toxicity, • body weight, • haemodynamic parameters, • haematology and • biochemical parameters TABLE 7

[2] = system: drug resistant (Pgp+) DLD-1 human colon tumour; experiment: Efficacy in nude athymic mice implanted with multidrug resistant, Pgp positive DLD-1 tumour xenografts; settings: mouse, in vivo
Experimental: Animals, nude athymic mice, 4 mice/group (10 in Control group) implanted subcutaneously with human DLD-1 colon tumour via trocar implant.
All agents were administered to nude athymic mice i.v. via tail vein on day 5 and 12 after s.c. tumour implant with the multidrug resistant, Pgp positive, human colon tumour xenograft.

[3] = Pharmacokinetic study of doxorubicin formulations in mice (plasma, HPLC); parameters: species or system Swiss albino mice; settings: mouse, in vivo, 10 mg/kg
Experimental: Blood samples after collection were centrifuged at 4000 rpm for 20 min and the plasma was separated and frozen at -20°C until analysed. The frozen plasma was thawed and used for analysis.
1ml of acetonitrile was added to 100 µL of plasma, vortexed for 10 min, centrifuged at 3250 rpm for 10 min. The supernatant was withdrawn and 0.5ml of saturated ZnSO4 solution was added to it. The resulting solution was vortexed for 5 min and then centrifuged for 10 min at 3250 rpm. The upper organic layer was then withdrawn and dried under oxygen free nitrogen gas at 60°C. The residue obtained was then reconstituted with 200µL of Solvent A containing ZnSO4. 100 µL of this solution was then injected in the HPLC column.
Student's t-test was used for comparison between the three formulations.

With Adriamycin^® the “Liver Function Test: aspartate aminotranferase, alanine aminotranferase and total bilirubin levels” value [1] was “Increase”, the “creatinine phosphokinase and lactate dehydrogenase levels” value [1] was “Increase” and the Body weight ([1]; 1 mg/kg) was “decrease in the bodyweight”. The “Haemodynamic Parameters: Heart rate” value ([1]; 1 mg/kg) was “Increases by average + 29.17%”, the “Haemodynamic Parameters: Respiratory rate” value ([1]; 1 mg/kg) was “Decreases by average -42.12%” and the “MTD relative to that of the liposomal formulations” value [2] was “about half”. For the same substance, the Cl [3] was 200.96 mL/h and the Kel [3] was 4.852.
